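48-hour exposure; five concentrations; linearly interpolated endpoints. The concentration for 50% growth inhibition is given as GI50.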 The source made the active and inactive calls. Cut-off read from the data, not from the text of the source: active = GI50 up to about 1.1 µM and inactive = higher. Where a SMILES comes first, the peptide text is derived from it. The star is where a group is joined. Boc = CC(C)(C)OC(=O)*; nBu = CCCC*
Legend:
Assay in all cases: NCI anticancer screen, dose series, 48 h
ACHN = test system: ACHN
BT-549 = test system: BT-549
CAKI-1 = test system: CAKI-1
CCRF-CEM = test system: CCRF-CEM
DU-145 = test system: DU-145
HCC 2998 = test system: HCC 2998
HOP-62 = test system: HOP-62
M14 = test system: M14
MDA-MB-231 = test system: MDA-MB-231
NCI-H522 = test system: NCI-H522
NCI/ADR-RES = test system: NCI/ADR-RES
OVCAR-8 = test system: OVCAR-8
RPMI-8226 = test system: RPMI-8226
SF-268 = test system: SF-268
SK-OV-3 = test system: SK-OV-3
SN12C = test system: SN12C
SNB-19 = test system: SNB-19
U-251 = test system: U-251
UACC-257 = test system: UACC-257
EKVX = test system: EKVX

Measured: GI50

Cc1ccc(SCC(CF)OC(C)n2cnc3c(O)nc(N)nc32)cc1 (stereo not given)
inactive: ACHN 55.6 µM | BT-549 19.8 µM | CAKI-1 > 100 µM | CCRF-CEM > 100 µM | DU-145 > 100 µM | HCC 2998 > 100 µM | HOP-62 > 100 µM | M14 > 100 µM | MDA-MB-231 > 100 µM | NCI-H522 > 100 µM | NCI/ADR-RES > 100 µM | OVCAR-8 > 100 µM | RPMI-8226 > 100 µM | SF-268 > 100 µM | SK-OV-3 > 100 µM | SN12C > 100 µM | SNB-19 > 100 µM | U-251 > 100 µM | UACC-257 48.4 µM

CCCCOc1ccc(CC(NC(=O)OC(C)(C)C)C(=O)NC(C)C(=O)NC(Cc2ccccc2)C(=O)NCC(N)=O)cc1 (stereo not given) (Boc-Y(nBu)AFG-NH2; configuration not given here)
inactive: ACHN > 100 µM | BT-549 > 100 µM | CAKI-1 > 100 µM | CCRF-CEM 24.3 µM | DU-145 > 100 µM | HCC 2998 > 100 µM | HOP-62 > 100 µM | M14 > 100 µM | MDA-MB-231 82.4 µM | NCI-H522 66.5 µM | NCI/ADR-RES > 100 µM | OVCAR-8 > 100 µM | RPMI-8226 32.6 µM | SF-268 > 100 µM | SK-OV-3 > 100 µM | SN12C > 100 µM | SNB-19 > 100 µM | U-251 59.4 µM | UACC-257 > 100 µM

COC(=O)[C@@H](Nc1ccccc1)[C@@]1(C(=O)OC)SC12c1ccccc1-c1ccccc12
inactive: ACHN > 100 µM | BT-549 75.5 µM | CAKI-1 > 100 µM | CCRF-CEM 39.4 µM | DU-145 > 100 µM | EKVX 61.8 µM | HCC 2998 > 100 µM | HOP-62 > 100 µM | M14 > 100 µM | MDA-MB-231 > 100 µM | NCI-H522 22 µM | NCI/ADR-RES > 100 µM | OVCAR-8 63 µM | RPMI-8226 25.8 µM | SF-268 > 100 µM | SN12C 44.6 µM | SNB-19 > 100 µM | U-251 44.1 µM | UACC-257 84.3 µM

CCN(CC)Cc1sc2nc3ccccc3n2c1-c1ccc(OC)cc1
inactive: ACHN 45.1 µM | BT-549 32.7 µM | CAKI-1 38.8 µM | CCRF-CEM 17.1 µM | DU-145 35.4 µM | EKVX 27.6 µM | HCC 2998 45.6 µM | HOP-62 65.5 µM | M14 25.6 µM | MDA-MB-231 60.4 µM | NCI-H522 4.11 µM | NCI/ADR-RES 15 µM | OVCAR-8 36.9 µM | RPMI-8226 10.5 µM | SF-268 24.3 µM | SK-OV-3 27 µM | SNB-19 27.1 µM | U-251 29.2 µM | UACC-257 > 100 µM

Clc1ccc(C(Cc2ccccc2)c2c(Cl)nc(N3CCNCC3)nc2Cl)cc1 (stereo not given)
inactive: ACHN 13.6 µM | BT-549 21.3 µM | CAKI-1 5.13 µM | CCRF-CEM 7.11 µM | DU-145 14.5 µM | EKVX 17.9 µM | HCC 2998 6.3 µM | HOP-62 15.7 µM | M14 16.2 µM | MDA-MB-231 12.8 µM | NCI-H522 12.4 µM | NCI/ADR-RES 15.8 µM | OVCAR-8 12.1 µM | RPMI-8226 13.7 µM | SK-OV-3 17.7 µM | SN12C 15.2 µM | SNB-19 15.3 µM | U-251 14 µM | UACC-257 15.7 µM

— ChEMBL document CHEMBL1201862, “PubChem BioAssay data set” (2004)
